Results as given in patent US5324648A, “Substituted isocoumarins as serine protease inhibitors and anti-inflammatory agents” (Georgia Tech Research Corporation, priority 1992, dated 1994).

Experiments:
C2a = target: T1, C2a (Homo sapiens, UniProt P06681); test: Inactivation rate of complement fragment C2a; format: biochemical; details: Table II; pH 7.5, 25° C; [I] 0.19 to 1.25 mM; read-out: kobs/[I]
T1 construct: active fragments C2a, Bb
Description: (§1) Inactivation rates of serine proteases by substituted isocoumarins were measured by the incubation method. An aliquot of inhibitor (25 or 50 μl) in Me2 SO was added to a buffered enzyme solution (0.01-2.3 μM) to initiate the inactivation. Aliquots (50 μl) were withdrawn at various intervals and the residual enzymatic activity was measured. Me2 SO concentration in the reaction mixture was 8-12% (v/v). 0.1 Hepes, 0.01M CaCl2, pH 7.5 buffer was utilized for trypsin and coagulation enzymes. 0.1M Hepes, 0.5M NaCl, pH 7.5 was utilized for other serine proteases. The inhibitor concentrations are shown in all the tables. Peptide thioesters or peptide nitroanilides with appropriate sequence were used as substrates for various serine proteases. All peptide thioester hydrolysis rates were measured with assay mixtures containing 4,4'-dithiodipyridine (ε324 =19800M^-1 cm^-1; Grasetti & Murray, Arch. Biochem. Biophys. 119, pp 41-49 (1967)). Peptide 4-nitroanilide nitroanilide hydrolysis was measured at 410 nm (ε410 =8800M^-1 cm^-1; Erlanger et al., Arch. Biochem. Biophys. 95, pp 271-278 (1961)). First order inactivation rate constant (kobs) were obtained from plots of ln (vt /vo) vs time, and the correlation coefficients were greater than 0.98.
^a Conditions were 0.1M Hepes, 0.5M NaCl, pH 7.5, 8-10% Me2 SO
and 25° C. Inactivation rates were measured by incubation method. […]

human thrombin = target: T2, human thrombin (Homo sapiens, UniProt P00734); test: Inactivation rate of human thrombin; format: biochemical; details: Table VIII; pH 7.5, 25° C; [I] 1.2-54 μM; read-out: kobs/[I]
T2 construct: human thrombin
Summary of the method: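 Incubation method: enzyme (0.01-2.3 μM) mixed with inhibitor in 0.1M Hepes, 0.01M CaCl2, pH 7.5, 8% Me2SO, 25° C; residual activity sampled over time with peptide thioester or 4-nitroanilide substrates. kobs from ln(vt/vo) vs time plots.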

[1] = Activated partial thromboplastin time (APTT), rabbit plasma
[2] = Spontaneous hydrolysis in rabbit plasma; format: in vitro ADME; details: for half-life: rabbit plasma, read-out: t1/2 for spontaneous hydrolysis
[3] = target: T3, rat mast cell protease II (Rattus norvegicus, UniProt P00770); test: Inactivation rate of rat mast cell protease II; format: biochemical; details: Table V; pH 7.5, 25° C; [I] 0.007 to 0.013 mM; read-out: kobs/[I]
T3 construct: rat mast cell protease II; from tissue; host or cells: rat mast cells (by the enzyme's name only)
Description: as §1
(§2) ^a Inactivation rates were measured at 0.1M Hepes, 0.5M NaCl, pH 7.5,
(§3) 8-12% Me2 SO and 25° C. by incubation method. An aliquot of […]

human skin chymase = target: T4, human skin chymase (Homo sapiens, UniProt P23946); test: Inactivation rate of human skin chymase; format: biochemical; details: Table V; pH 7.5, 25° C; [I] 0.41 to 0.53 mM; read-out: kobs/[I]
T4 construct: human skin chymase; from tissue; host or cells: human skin
Description: as §1, §2, §3

human lung chymase = target: T5, human lung chymase (Homo sapiens, UniProt P23946); test: Inactivation rate of human lung chymase; format: biochemical; details: Table V; pH 7.5, 25° C; [I] 0.38 mM; read-out: kobs/[I]
T5 construct: human lung chymase; from tissue; host or cells: human lung
Description: as §1, §2, §3

pig plasma [4] = test: Prothrombin time (PT), pig plasma
pig plasma [5] = test: Activated partial thromboplastin time (APTT), pig plasma; details: [I] 16 μM

T1 sequence (P06681 244-752 limits assumed): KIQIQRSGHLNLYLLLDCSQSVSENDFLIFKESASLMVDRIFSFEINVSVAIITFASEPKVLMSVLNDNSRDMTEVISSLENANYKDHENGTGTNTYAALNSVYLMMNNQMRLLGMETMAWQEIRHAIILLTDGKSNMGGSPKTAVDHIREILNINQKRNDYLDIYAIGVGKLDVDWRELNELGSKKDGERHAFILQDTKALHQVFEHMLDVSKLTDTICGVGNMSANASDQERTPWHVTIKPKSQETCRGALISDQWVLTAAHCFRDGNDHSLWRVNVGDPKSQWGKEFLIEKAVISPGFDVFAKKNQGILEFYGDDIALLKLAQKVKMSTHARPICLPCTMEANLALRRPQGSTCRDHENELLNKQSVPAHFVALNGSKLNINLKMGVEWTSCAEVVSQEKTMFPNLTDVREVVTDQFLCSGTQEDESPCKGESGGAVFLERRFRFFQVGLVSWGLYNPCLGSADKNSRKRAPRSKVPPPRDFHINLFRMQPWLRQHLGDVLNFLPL
T4 sequence (P23946 22-247): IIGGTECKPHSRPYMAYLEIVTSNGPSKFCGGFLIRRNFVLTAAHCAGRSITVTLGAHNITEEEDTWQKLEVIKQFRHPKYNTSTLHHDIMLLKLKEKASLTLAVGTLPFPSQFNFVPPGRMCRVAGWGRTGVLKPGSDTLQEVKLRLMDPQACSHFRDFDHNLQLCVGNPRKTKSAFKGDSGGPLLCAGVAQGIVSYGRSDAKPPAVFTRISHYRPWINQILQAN
T3 sequence (P00770 21-247): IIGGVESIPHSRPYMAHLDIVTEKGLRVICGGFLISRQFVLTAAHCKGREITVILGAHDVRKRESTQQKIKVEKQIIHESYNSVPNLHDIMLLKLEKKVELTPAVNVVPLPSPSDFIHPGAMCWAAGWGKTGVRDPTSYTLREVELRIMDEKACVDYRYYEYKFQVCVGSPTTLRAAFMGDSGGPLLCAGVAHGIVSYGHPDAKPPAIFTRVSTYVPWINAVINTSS
T5 sequence (P23946 22-247): as the sequence (P23946 22-247) above

kinact/KI (human thrombin) | SMILES | kinact/KI (C2a) | half-life [2] | kinact/KI [3] | kinact/KI (human skin chymase) | further results
– | N=C(N)SCCCOc1oc(=O)c2ccccc2c1Cl [3-(3-isothiureidopropoxy)-4-chloroisocoumarin] | 0.8 M⁻¹ s⁻¹ | – | – | – | –
760 M⁻¹ s⁻¹ | N=C(N)SCCCOc1oc(=O)c2cc(N)ccc2c1Cl [7-amino-4-chloro-3-(3-isothiureidopropoxy)isocoumarin] | – | 2.33 h | – | – | APTT ([1]; [I] 33 μM): 68.6 s; stability in rabbit plasma (in words) [2]: fairly stable
– | N=C(N)Nc1ccc2c(Cl)c(OCCc3ccccc3)oc(=O)c2c1 [7-guanidino-4-chloro-3-(2-phenylethoxy)isocoumarin] | – | – | 4100 M⁻¹ s⁻¹ | 22 M⁻¹ s⁻¹ | –
– | N=C(N)SCCOc1oc(=O)c2ccccc2c1Cl [3-(2-isothiureidoethoxy)-4-chloroisocoumarin] | 1.4 M⁻¹ s⁻¹ | – | – | – | –
– | CCOc1oc(=O)c2cc(NC(=N)N)ccc2c1Cl [7-guanidino-3-ethoxy-4-chloroisocoumarin, 7-guanidino-4-chloro-3-ethoxyisocoumarin] | – | 0.07 h | 1100 M⁻¹ s⁻¹ | 33 M⁻¹ s⁻¹ | APTT ([1]; [I] 31 μM): 60.5 s; kinact/KI (human lung chymase): 540 M⁻¹ s⁻¹
22400 M⁻¹ s⁻¹ | N=C(N)SCCOc1oc(=O)c2cc(NC(=O)Nc3ccccc3)ccc2c1Cl [PhNHCONH-CiTEtOIC, 7-(phenylcarbamoylamino)-4-chloro-3-(2-isothiureidoethoxy)isocoumarin] | – | – | – | – | PT (pig plasma [4]; [I] 16 μM): 28.5 s; PT (pig plasma [4]; [I] 32 μM): 58.3 s; APTT (pig plasma [5]): > 120 s
